For data set [1] the following is noted: standard animal models for analgesic effect; cited from earlier work.
The conditions of data set [2]: multiple tests; cited from earlier work.
The conditions of data set [3]: compared with morphine; cited from earlier work.
Data set [4] deals with human plasma protein. Briefly: in vitro. On the procedure: Samples at the dosing and receiving ends and at the preparation instant (0 h) were assayed by LC-MS/MS, and the plasma protein binding (PPB) rates and the recovery rates were calculated based on the assay results. The plasma samples and PBS samples prepared from the test samples and the commercially available controls were incubated at 37° C. for 6 h with oscillation (100 rpm) and then assayed for stability.

Data on two compounds can be found in US20240325303A1, “KETOROLAC LIQUID COMPOSITION, PREPARATION METHOD THEREFOR, AND APPLICATION THEREOF” (SHANGHAI AURORA BIOTECHNOLOGY CO., LTD., priority 2021, published 2024).

Structures are written as SMILES.

On to `O=C(c1ccccc1)c1ccc2n1CCC2C(=O)O` (centres unmarked) [Ketorolac tromethamine], for which, in data set [1], the “analgesic activity compared with indomethacin, naproxen, phenylbutazone” value was “stronger than that of indomethacin and naproxen, and equivalent to or better than that of phenylbutazone”; the “analgesic activity relative to aspirin” value is reported as 800 times. Further, the “anti-inflammatory activity compared with indomethacin, naproxen, phenylbutazone” value in data set [2] is “equivalent to or stronger than that of indomethacin, stronger than that of naproxen, and significantly better than that of phenylbutazone”. In data set [3], the relieving postsurgical pain entry is on record as “superior to morphine”.

Regarding `CC(=O)CC(c1ccccc1)c1c(O)c2ccccc2oc1=O` (centres unmarked) [Warfarin], in data set [4], the recovery at 6 h, 300 ng/mL came out at 96.2%.
